Laboratory results as given in patent US20260109690A1, “HDAC6 INHIBITORS AND METHOD OF THEIR USE” (Baerenkraft Therapeutics, LLC., priority 2024, published 2026).
Read-outs that look alike come from different tables or passages of the source. One block for each molecule: values may come before it.

How the values were obtained:
Tg2576 AD Disease Mice = assay: Tg2576 study: Y-maze test; format: in vivo; details: for # of Spontaneous Alterations (Y-Maze) / % Spontaneous Alterations (Y-Maze): G3 Tg2576 mice
Protocol: Mice were weighed and randomized into groups. All the test formulations were freshly administered to respective animals of each group as per body weight. Basal behavior of the animals was recorded and analyzed in open field, Y-Maze, and EPM. Post basal behavior, animals were treated with compound I-16 for the duration of 3 months (i.e., from 6 months until 9 months). During the treatment duration, animals were subjected to different behavioral tests such as OFT, Y-maze, and EPM at 7, 8 and 9 months. At the end of experiments (i.e., at 9 months) animals were subjected to Morris water maze test.
To test spatial working memory, animals were subjected to spontaneous alteration test in Y-maze (Arm length—57 cm). During the test, the animal was placed at the end of one arm and allowed to explore the arena for a duration of 10 minutes. During the testing session, the number of entries in each arm were recorded and % alterations were calculated.
% Spontaneous alteration=(Spontaneous alteration/Total Arm entries−2)×100

HDAC6 = molecular target: T1, HDAC6 (Homo sapiens, UniProt Q9UBN7); assay: Biochemical HDAC6 inhibitory activity assay
T1 sequence (Q9UBN7 1-1215): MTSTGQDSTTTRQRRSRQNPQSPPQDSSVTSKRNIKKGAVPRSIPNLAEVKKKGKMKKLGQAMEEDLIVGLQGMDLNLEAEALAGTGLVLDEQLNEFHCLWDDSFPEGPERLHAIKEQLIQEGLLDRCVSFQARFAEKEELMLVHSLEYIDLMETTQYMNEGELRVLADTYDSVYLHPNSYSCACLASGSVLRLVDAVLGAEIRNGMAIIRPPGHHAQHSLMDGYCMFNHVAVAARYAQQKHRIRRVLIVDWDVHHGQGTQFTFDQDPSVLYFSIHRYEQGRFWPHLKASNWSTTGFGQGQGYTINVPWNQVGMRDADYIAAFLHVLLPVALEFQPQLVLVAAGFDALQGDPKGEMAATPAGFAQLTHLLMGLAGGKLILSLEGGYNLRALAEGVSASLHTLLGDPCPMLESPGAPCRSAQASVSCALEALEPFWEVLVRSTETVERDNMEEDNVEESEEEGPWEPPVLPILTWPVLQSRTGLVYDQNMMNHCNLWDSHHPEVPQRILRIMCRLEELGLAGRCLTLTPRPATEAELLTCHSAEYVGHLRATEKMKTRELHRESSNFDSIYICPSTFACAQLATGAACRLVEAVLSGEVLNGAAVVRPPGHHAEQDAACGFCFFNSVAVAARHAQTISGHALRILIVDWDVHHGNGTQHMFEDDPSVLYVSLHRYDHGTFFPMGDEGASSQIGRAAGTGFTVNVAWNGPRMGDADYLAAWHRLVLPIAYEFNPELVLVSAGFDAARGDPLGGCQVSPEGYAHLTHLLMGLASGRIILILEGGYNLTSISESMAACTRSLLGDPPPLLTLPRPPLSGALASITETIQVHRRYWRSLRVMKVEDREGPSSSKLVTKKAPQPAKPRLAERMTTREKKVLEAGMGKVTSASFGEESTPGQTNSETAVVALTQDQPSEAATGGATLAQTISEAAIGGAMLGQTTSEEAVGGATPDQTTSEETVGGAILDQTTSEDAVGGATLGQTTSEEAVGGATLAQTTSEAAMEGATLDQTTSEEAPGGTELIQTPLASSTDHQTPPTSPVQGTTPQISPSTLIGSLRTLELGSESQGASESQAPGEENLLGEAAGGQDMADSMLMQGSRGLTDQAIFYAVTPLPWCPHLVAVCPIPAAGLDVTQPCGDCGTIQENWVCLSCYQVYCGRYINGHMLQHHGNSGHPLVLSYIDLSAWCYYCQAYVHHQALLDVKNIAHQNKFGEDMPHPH

[1] = Mice PK studies of compound I-16; format: in vivo
HDAC9 = HDAC9 (Homo sapiens, UniProt Q9UKV0); assay: HDAC selectivity panel: HDAC9; format: biochemical
HDAC9, sequence (Q9UKV0 whole entry, species assumed): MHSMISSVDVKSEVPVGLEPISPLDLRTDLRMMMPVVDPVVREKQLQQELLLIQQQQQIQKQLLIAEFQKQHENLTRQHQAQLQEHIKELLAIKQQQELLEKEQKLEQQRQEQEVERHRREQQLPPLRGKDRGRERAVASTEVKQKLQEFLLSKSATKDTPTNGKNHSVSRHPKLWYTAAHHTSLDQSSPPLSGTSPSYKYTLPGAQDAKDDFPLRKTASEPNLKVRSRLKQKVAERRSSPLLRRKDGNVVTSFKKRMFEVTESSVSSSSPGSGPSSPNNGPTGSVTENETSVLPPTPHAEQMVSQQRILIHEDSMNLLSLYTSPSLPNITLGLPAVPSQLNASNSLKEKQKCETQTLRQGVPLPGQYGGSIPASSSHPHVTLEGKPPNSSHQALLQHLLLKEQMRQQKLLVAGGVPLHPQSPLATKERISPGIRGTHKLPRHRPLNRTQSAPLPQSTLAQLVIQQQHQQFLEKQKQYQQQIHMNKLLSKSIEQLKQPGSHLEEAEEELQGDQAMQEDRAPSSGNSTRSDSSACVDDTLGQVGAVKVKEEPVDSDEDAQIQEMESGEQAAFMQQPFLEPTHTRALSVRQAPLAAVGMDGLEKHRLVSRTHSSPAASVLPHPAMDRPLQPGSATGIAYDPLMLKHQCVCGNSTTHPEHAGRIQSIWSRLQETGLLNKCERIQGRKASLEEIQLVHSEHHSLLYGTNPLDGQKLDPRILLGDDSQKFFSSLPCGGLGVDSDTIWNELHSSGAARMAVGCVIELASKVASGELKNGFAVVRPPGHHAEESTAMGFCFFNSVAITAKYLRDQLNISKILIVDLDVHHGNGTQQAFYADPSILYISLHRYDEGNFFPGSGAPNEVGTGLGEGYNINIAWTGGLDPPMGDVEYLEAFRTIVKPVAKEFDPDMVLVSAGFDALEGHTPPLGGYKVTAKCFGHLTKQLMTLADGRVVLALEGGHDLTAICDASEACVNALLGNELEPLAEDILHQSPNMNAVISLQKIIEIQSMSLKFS

[2] = test system: B6SJL.SOD1-G93A transgenic mouse model of amyotrophic lateral sclerosis; assay: Pre-clinical ALS mouse model efficacy: motor behavior; format: in vivo, mice; details: both doses (G3 and G4), week 10 until week 16
Protocol: Effect of test compound I-8 in Cyagen, male B6SJL.SOD1-G93A 9-week-old transgenic mouse model of amyotrophic lateral sclerosis
Compound I-8 effect was evaluated in Cyagen, Male B6SJL.SOD1-G93A 9-week-old mice, an animal model of amyotrophic lateral sclerosis.

HDAC1 = HDAC1 (Homo sapiens, UniProt Q13547); assay: HDAC selectivity panel: HDAC1; format: biochemical
HDAC1, sequence (Q13547 whole entry, species assumed): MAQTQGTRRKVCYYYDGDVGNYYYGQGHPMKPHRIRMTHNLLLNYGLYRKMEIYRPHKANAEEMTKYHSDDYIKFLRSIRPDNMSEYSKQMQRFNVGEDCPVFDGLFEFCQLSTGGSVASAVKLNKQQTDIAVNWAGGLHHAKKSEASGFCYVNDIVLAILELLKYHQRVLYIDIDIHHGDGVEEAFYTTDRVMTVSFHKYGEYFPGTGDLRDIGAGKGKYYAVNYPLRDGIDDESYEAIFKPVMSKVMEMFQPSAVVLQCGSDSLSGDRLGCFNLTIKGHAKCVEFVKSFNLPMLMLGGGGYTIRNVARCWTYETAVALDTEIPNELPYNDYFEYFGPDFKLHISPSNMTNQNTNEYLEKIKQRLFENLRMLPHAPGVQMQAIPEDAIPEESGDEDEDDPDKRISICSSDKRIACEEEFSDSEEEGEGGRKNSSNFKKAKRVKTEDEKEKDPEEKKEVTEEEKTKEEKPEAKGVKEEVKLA

[3] = test system: B6SJL.SOD1-G93A transgenic mouse model of amyotrophic lateral sclerosis; assay: ALS mouse model: beam walk test; format: in vivo, mice
Text: Beam walk test was used for the assessment of motor coordination or balance of animals. The beam apparatus consisted of 1-meter beams with a flat surface of 6 mm width resting 50 cm above the tabletop on two poles. Animals were placed at one end of the beam, allowed to traverse the beam and reach another end with a cage filled with the home cage bedding. Animals were trained on beams for 2 consecutive days, 3 trials per day with 30 s inter-trial interval. On day 3 (day of test), animals were tested on the beam. A total 3 trials were performed, and time taken to traverse the beam & number of slips were recorded, average data was analyzed. For animals unable to traverse the beam, a cutoff time of 60 s was assigned.
Note: Number of slips were recorded until week 12 due to disease progression after that.
Note: Behavioral tests were performed once in two weeks, i.e. at week 10, 12, 14 and 16.

HDAC2 = HDAC2 (Homo sapiens, UniProt Q92769); assay: HDAC selectivity panel: HDAC2; format: biochemical
HDAC2, sequence (Q92769 whole entry, species assumed): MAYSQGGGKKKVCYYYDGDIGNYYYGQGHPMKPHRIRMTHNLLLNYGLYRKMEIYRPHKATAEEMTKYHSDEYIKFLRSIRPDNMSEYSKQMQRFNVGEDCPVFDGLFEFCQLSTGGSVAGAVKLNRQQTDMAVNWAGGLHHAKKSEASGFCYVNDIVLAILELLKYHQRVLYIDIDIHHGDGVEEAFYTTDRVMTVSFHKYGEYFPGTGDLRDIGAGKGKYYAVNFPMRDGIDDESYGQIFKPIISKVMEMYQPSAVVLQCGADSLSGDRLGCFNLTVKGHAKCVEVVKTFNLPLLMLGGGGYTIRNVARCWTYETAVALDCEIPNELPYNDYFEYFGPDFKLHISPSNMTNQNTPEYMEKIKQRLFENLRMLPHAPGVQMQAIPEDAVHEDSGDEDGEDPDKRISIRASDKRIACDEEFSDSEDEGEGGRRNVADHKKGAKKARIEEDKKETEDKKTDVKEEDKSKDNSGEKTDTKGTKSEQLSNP

[4] = 50 mg/kg then 80 mg/kg from day 36 p.o., 8th months
[5] = 50 mg/kg then 80 mg/kg from day 36 p.o., 9th months
[6] = 6th months (Basal, before treatment)

IC50 (HDAC6; read-out: HDAC6 IC50): < 1 µM
IC50 (HDAC6; unit inferred, read-out: IC50 against HDAC6 (FIG. 3)): 0.0124 µM
oral and brain uptake [1]: promising oral, and brain up take
SMILES: C[C@@H]1CN(Cc2ccc(Nc3nccc(-c4ccc(C(=O)NO)cc4)n3)cc2F)CCO1 [Compound I-16, (R)-4-(2-((3-fluoro-4-((2-methylmorpholino)methyl)phenyl)amino)pyrimidin-4-yl)-N-hydroxybenzamide]
Y Maze: number of spontaneous alterations compared to G2 (Tg2576 + vehicle) (Tg2576 AD Disease Mice; G3 Tg2576 AD disease mice, 50 mg/kg): did not show any significant difference
# of Spontaneous Alterations (Y-Maze) (Tg2576 AD Disease Mice; 50 mg/kg p.o., 7th months): 18.70 ± 6.96
% Spontaneous Alterations (Y-Maze) (Tg2576 AD Disease Mice; 50 mg/kg p.o., 7th months): 57.59 ± 3.85%
# of Spontaneous Alterations (Y-Maze) (Tg2576 AD Disease Mice; [4]): 16.00 ± 2.59
% Spontaneous Alterations (Y-Maze) (Tg2576 AD Disease Mice; [4]): 41.65 ± 5.52%
# of Spontaneous Alterations (Y-Maze) (Tg2576 AD Disease Mice; [5]): 16.00 ± 2.48
% Spontaneous Alterations (Y-Maze) (Tg2576 AD Disease Mice; [5]): 43.66 ± 4.55%
# of Spontaneous Alterations (Y-Maze) (Tg2576 AD Disease Mice; [6]): 25.00 ± 5.19
% Spontaneous Alterations (Y-Maze) (Tg2576 AD Disease Mice; [6]): 53.60 ± 3.25%

SMILES: CC1CN(Cc2ccc(Nc3nccc(-c4ccc(C(=O)NO)cc4)n3)cc2F)CCO1 (racemic) [Compound I-8, 4-(2-((3-fluoro-4-((2-methylmorpholino)methyl)phenyl)amino)pyrimidin-4-yl)-N-hydroxybenzamide]
IC50 (HDAC9): 22 µM
motor behavior compared to disease control group [2]: Improvement was observed in motor behavior
IC50 (HDAC6; 10-dose IC50 mode, in singlet, 3-fold serial dilution, test compound starting at 100 millimolar, read-out: HDAC6 IC50): 0.00732 µM
EC50 (HDAC6; 10-dose in vitro test (FIG. 1)): 0.00732 µM
selectivity for HDAC6 compared to other HDACs (HDAC6; against 11 HDACs): marked selectivity for HDAC6
IC50 (HDAC6; read-out: HDAC6 IC50): < 1 µM
IC50 (HDAC1): 1.18 µM
Beam Walk Test- Latency to traverse the beam ([3]; G3 15 mg/kg p.o. QD, Week 10): 21.37 ± 5.99 s
Beam Walk Test: Number of Slips ([3]; G3 15 mg/kg p.o. QD, Week 10): 1.42 ± 0.14
Beam Walk Test- Latency to traverse the beam ([3]; G3 15 mg/kg p.o. QD, Week 12): 25.96 ± 5.59 s
Beam Walk Test: Number of Slips ([3]; G3 15 mg/kg p.o. QD, Week 12): 0.93 ± 0.19
Beam Walk Test- Latency to traverse the beam ([3]; G3 15 mg/kg p.o. QD, Week 14): 20.52 ± 6.85 s
Beam Walk Test- Latency to traverse the beam ([3]; G3 15 mg/kg p.o. QD, Week 16): 58.21 ± 1.79 s
Beam Walk Test- Latency to traverse the beam ([3]; G4 30 mg/kg (50 mg/kg from day 34) p.o. QD, Week 10): 17.04 ± 5.71 s
Beam Walk Test- Latency to traverse the beam ([3]; G4 30 mg/kg (50 mg/kg from day 34) p.o. QD, Week 12): 29.83 ± 6.82 s
Beam Walk Test- Latency to traverse the beam ([3]; G4 30 mg/kg (50 mg/kg from day 34) p.o. QD, Week 14): 25.29 ± 7.64 s
Beam Walk Test- Latency to traverse the beam ([3]; G4 30 mg/kg (50 mg/kg from day 34) p.o. QD, Week 16, cutoff time 60 s): 60 ± 0 s
Beam Walk Test: Number of Slips ([3]; G4 30 mg/kg p.o. QD, Week 10): 1.33 ± 0.40
Beam Walk Test: Number of Slips ([3]; G4 30 mg/kg p.o. QD, Week 12): 1.38 ± 0.34
latency to traverse the beam vs. G2 ([3]; G4, week 10): significant reduction in latency to traverse the beam
motor balance compared to G2, disease control group ([3]; G4, week 10): significant improvement was observed in motor balance
IC50 (HDAC2): 2.8 µM
